Reference: US20230293535A1, “ERBB/BTK INHIBITORS” (Dizal (Jiangsu) Pharmaceutical Co., Ltd., priority 2018, published 2023)
Structures can show the parent of a compound that is named as a salt. Where two headings read alike, the source gives them in different places.

Key:
Type in all cases: cell-based
[1] = tested on: Ba/F3 EGFR NPH ins cells; test: Cell proliferation, Ba/F3 EGFR NPH ins (CellTiter-Glo, 72 h); conditions: Ba/F3 EGFR, 72 h;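 further: IL3-independent cells carrying constitutively phosphorylated EGFR, compound dilution series, viable cells quantified by ATP luminescence, growth relative to DMSO wells after subtracting pre-dosing (day 0) baseline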
[2] = tested on: NCI-H1975 EGFR L858R/T790M cells; test: Cell proliferation, NCI-H1975 EGFR L858R/T790M (CellTiter-Glo, 72 h); conditions: Homo sapiens, NCI-H1975, 72 h;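 further: viable cells quantified by luciferase-based ATP luminescence, proliferation expressed relative to DMSO-treated wells (100%) after subtracting a parallel plate read at the time of dosing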
[3] = tested on: DB cells; test: BTK (wt) cell proliferation, DB (CellTiter-Glo, 72 h); conditions: Homo sapiens, DB, DB cells, CellTiter-Glo, read-out: Non-BCR activated DB GI50;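 further: DB cells in 384-well plates given a dilution series of compound, viable cells read by ATP luminescence, growth expressed versus DMSO control after subtracting a time-zero plate reading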
Method: (§1) OCI-LY-10 at 3,750 cells/well, TMD-8 and Ri-1 at 2,000 cells/well, and DB at 1,250 cells/well, respectively, were sorted into 384-well plates in RPMI1640 medium with 10% FBS. After overnight incubation, all cells were incubated with compound at a series of concentrations. Meanwhile, a duplicated plate of each cell line was prepared for measuring G0 value. The dosed plates were further incubated for 72 hours and the number of viable cells was measured by CellTiter-Glo® Luminescent Cell Viability Assay (Promega), a luminescent method for determining the number of viable cells through measurement of cellular ATP concentration using Envision plate reader (PerkinElmer). The percentage of proliferation was calculated as: % Proliferation = 100 × (G3 value of sample well - G0 value)/(G3 value of DMSO control - G0 value).

[4] = molecular target: T1, WT EGFR (Homo sapiens, UniProt P00533); test: WT EGFR cellular phosphorylation inhibition in A-431 (hEGF stimulated, MSD); conditions: A431 cells, 4 h compound, then 100 ng/ml hEGF 10 min;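 further: electrochemiluminescence read-out of EGFR Tyr1068 phosphorylation expressed as ratio to total EGFR, cells kept in medium with 1% FBS, compounds tested as a concentration series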
T1 construct: host or cells: A-431
Method: One day before the test, WT or mutant cells were seeded in 96 well plates at appropriate concentrations with corresponding growth media supplemented with 1% FBS, and incubated overnight. The next day, tested compounds at a series of concentrations were added into each individual well of the plates, and the plates were incubated for 4 h at 37° C. with 5% CO2.
The EGFR (Y1068) phosphorylation level (activity) of cells in each well were then measured with MSD kit named “MULTI-SPOT®96 4-Spot HB Prototype EGFR Triplex [sequence]: pEGFR(Tyr1068),pEGFR(Tyr1173), Total EGFR” according to the manufacturer’s instruction (MESO SCALE DISCOVERY, Cat# N45ZB-1). The assay is an electrochemiluminescent method for determining both phosphorylated and total EGFR of cells with an MSD SECTOR® Imager and the ratio of p-EGFR/total EGFR can be generated by the machine. The Her2 (Y1248) phosphorylation level (activity) of cells in each well were measured with MSD Kit named “Phospho-ErbB2 (Tyr1248) Assay Whole Cell Lysate Kit” according to the manufacturer’s instruction (MESO SCALE DISCOVERY, Cat# K151CLD-3). The assay is an electrochemiluminescent method (MESO SCALE DISCOVERY) for determining both phosphorylated and total Her2 of cells with an MSD SECTOR® Imager and then the ratio of p-Her2/total Her2 can be generated by the machine.

[5] = molecular target: T2, human Her2 exon 20 insertion mutation YVMA (Homo sapiens, UniProt P04626, INS775YVMA); test: Her2 Exon 20 YVMA insertion cellular phosphorylation inhibition (MSD p-Her2 Y1248/total Her2); conditions: Her2 YVMAins cells, 4 h compound;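 further: lentivirally transduced NIH-3T3 cells in 1% FBS medium, electrochemiluminescent MSD read-out, graded compound concentrations at 37 °C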
T2 construct: expressed in transfected cells; host or cells: NIH-3T3, lentiviral transduction, puromycin selection

[6] = tested on: OCI-LY-10 cells; test: BTK (wt) cell proliferation, OCI-LY-10 (CellTiter-Glo, 72 h); conditions: Homo sapiens, OCI-Ly10, 72 h, OCI-LY-10 cells, 72 h, CellTiter-Glo; read-out: BTK WT OCI-LY-10 GI50;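 further: viable cells quantified via cellular ATP luminescence, proliferation given as percent of DMSO control after subtracting a duplicate plate read at time of dosing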
Method: as §1

[7] = tested on: TMD-8 cells; test: BTK (wt) cell proliferation, TMD-8 (CellTiter-Glo, 72 h); conditions: Homo sapiens, TMD8, 72 h, TMD-8 cells, 72 h, CellTiter-Glo; read-out: BTK WT TMD-8 GI50;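 further: viable cells quantified by ATP-based luminescence, proliferation expressed as percent of DMSO control after subtracting a time-zero baseline plate read at dosing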
[8] = molecular target: T3, human EGFR exon 20 V769_D770insASV (Homo sapiens, UniProt P00533, INS769ASV); test: EGFR Exon20 ASV insertion cellular phosphorylation inhibition (MSD pEGFR Y1068/total EGFR); conditions: Ba/F3 EGFR ASV ins cells, 4 h compound, p-EGFR(Y1068)/total EGFR;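 further: electrochemiluminescent readout on an MSD SECTOR Imager, IL3-independent transduced cells in medium with 1% FBS, compound concentration series at 37 °C and 5% CO2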
T3 construct: expressed in transfected cells; host or cells: Ba/F3 (DSMZ ACC-300), lentiviral transduction, puromycin selection, IL3 depletion

[9] = tested on: Ba/F3 EGFR ASV ins cells; test: Cell proliferation, Ba/F3 EGFR ASV ins (CellTiter-Glo, 72 h); conditions: Ba/F3 EGFR, 72 h;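 further: IL3-independent Ba/F3 cells transduced with EGFR V769_D770insASV, cellular ATP luminescence after compound exposure, growth relative to DMSO control with the day-0 baseline reading subtracted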
[10] = molecular target: T4, human EGFR exon 20 H773_V774insNPH (Homo sapiens, UniProt P00533, INS773NPH); test: EGFR Exon20 NPH insertion cellular phosphorylation inhibition (MSD pEGFR Y1068/total EGFR); conditions: Ba/F3 EGFR NPH ins cells, 4 h compound, p-EGFR(Y1068)/total EGFR;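 further: IL3-independent Ba/F3 cells with constitutively phosphorylated EGFR, compound exposure at 37 °C under 5% CO2, electrochemiluminescent MSD measurement of the p-EGFR to total EGFR ratio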
T4 construct: host or cells: Ba/F3

[11] = molecular target: T5, EGFR L858R&T790M (Homo sapiens, UniProt P00533, L858R/T790M); test: EGFR L858R and T790M cellular phosphorylation inhibition in NCI-H1975 (MSD); conditions: NCI-H1975 cells, 4 h compound, p-EGFR(Y1068)/total EGFR; read-out: EGFR L858R and T790M mutation IC50;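 further: phosphorylated and total EGFR detected by electrochemiluminescence, cells exposed to compound in medium containing 1% FBS at 37 °C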
T5 construct: host or cells: NCI-H1975

[12] = tested on: Her2 exon 20 insertion YVMA transduced NIH-3T3 cell line; test: Cell proliferation, Her2 YVMAins NIH-3T3 (CellTiter-Glo, 72 h); conditions: Mus musculus, NIH3T3, 72 h, Her2 YVMAins cells, 72 h proliferation; read-out: Her2 Exon 20 YVMA insertion GI50;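 further: viable cells quantified by ATP luminescence, growth over a day-zero baseline plate expressed as percent of DMSO control growth, compound dilution series in 10% FBS medium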
[13] = tested on: WT EGFR cell line A-431; test: Cell proliferation, WT EGFR A431 (CellTiter-Glo, 72 h); conditions: Homo sapiens, A-431, 72 h;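 further: proliferation from a luminescent ATP viability signal, expressed as 100 × (treated minus time-zero plate) over (DMSO control minus time-zero plate), cells grown with 10% FBS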
[14] = tested on: Ri-1 cells; test: BTK (wt) cell proliferation, Ri-1 (CellTiter-Glo, 72 h); conditions: Ri-1, 72 h, Ri-1 cells, 72 h, CellTiter-Glo; read-out: BTK WT Ri-1 GI50;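 further: viable cells quantified as cellular ATP luminescence, proliferation normalized to a time-zero plate and the DMSO control, compounds tested across a dilution series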
[15] = read-out: EGFR Exon20 NPH insertion GI50 (nM)
[16] = read-out: EGFR L858R and T790M mutation GI50 (nM)
[17] = read-out: EGFR Exon20 ASV insertion GI50 (nM)
[18] = read-out: EGFR WT A431 GI50 (nM)
[19] = Ba/F3 EGFR NPH ins, 72 h proliferation, read-out: EGFR Exon20 NPH insertion GI50
[20] = NCI-H1975, 72 h proliferation, read-out: EGFR L858R and T790M mutation GI50
[21] = Ba/F3 EGFR ASV ins, 72 h proliferation, read-out: EGFR Exon20 ASV insertion GI50
[22] = A431, 72 h proliferation, read-out: EGFR WT A431 GI50

T4 sequence (P00533 with tags, fused parts or gaps INS773NPH): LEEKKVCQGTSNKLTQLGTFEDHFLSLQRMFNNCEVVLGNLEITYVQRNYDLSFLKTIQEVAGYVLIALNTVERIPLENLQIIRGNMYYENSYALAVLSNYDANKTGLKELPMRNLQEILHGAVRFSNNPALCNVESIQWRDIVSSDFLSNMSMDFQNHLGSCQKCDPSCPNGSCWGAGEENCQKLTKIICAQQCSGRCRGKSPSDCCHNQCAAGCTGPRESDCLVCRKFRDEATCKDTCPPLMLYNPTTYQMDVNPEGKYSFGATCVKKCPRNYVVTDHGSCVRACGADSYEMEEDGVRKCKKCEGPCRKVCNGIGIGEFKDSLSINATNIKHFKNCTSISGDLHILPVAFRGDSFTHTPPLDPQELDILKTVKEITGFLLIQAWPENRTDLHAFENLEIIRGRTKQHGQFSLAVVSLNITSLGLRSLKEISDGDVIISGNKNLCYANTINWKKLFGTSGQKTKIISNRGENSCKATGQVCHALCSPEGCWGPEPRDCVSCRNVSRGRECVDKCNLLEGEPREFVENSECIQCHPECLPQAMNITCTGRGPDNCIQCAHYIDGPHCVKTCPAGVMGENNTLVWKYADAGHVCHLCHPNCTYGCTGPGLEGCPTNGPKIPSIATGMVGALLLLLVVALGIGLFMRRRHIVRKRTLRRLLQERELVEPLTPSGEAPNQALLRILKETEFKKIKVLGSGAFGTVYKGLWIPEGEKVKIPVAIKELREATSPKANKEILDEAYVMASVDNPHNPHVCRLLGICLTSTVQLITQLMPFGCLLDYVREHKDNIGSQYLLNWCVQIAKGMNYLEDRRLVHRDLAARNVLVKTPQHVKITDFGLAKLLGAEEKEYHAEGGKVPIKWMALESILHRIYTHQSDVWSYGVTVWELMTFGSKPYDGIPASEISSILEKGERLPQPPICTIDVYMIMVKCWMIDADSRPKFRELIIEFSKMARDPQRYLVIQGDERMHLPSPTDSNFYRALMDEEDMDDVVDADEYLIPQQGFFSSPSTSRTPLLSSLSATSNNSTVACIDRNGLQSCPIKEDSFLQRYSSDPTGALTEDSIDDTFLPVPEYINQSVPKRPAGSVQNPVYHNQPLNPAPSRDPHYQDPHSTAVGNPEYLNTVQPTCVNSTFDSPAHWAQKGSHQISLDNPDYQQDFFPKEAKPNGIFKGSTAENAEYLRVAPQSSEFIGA
T2 sequence (P04626 with tags, fused parts or gaps INS775YVMA): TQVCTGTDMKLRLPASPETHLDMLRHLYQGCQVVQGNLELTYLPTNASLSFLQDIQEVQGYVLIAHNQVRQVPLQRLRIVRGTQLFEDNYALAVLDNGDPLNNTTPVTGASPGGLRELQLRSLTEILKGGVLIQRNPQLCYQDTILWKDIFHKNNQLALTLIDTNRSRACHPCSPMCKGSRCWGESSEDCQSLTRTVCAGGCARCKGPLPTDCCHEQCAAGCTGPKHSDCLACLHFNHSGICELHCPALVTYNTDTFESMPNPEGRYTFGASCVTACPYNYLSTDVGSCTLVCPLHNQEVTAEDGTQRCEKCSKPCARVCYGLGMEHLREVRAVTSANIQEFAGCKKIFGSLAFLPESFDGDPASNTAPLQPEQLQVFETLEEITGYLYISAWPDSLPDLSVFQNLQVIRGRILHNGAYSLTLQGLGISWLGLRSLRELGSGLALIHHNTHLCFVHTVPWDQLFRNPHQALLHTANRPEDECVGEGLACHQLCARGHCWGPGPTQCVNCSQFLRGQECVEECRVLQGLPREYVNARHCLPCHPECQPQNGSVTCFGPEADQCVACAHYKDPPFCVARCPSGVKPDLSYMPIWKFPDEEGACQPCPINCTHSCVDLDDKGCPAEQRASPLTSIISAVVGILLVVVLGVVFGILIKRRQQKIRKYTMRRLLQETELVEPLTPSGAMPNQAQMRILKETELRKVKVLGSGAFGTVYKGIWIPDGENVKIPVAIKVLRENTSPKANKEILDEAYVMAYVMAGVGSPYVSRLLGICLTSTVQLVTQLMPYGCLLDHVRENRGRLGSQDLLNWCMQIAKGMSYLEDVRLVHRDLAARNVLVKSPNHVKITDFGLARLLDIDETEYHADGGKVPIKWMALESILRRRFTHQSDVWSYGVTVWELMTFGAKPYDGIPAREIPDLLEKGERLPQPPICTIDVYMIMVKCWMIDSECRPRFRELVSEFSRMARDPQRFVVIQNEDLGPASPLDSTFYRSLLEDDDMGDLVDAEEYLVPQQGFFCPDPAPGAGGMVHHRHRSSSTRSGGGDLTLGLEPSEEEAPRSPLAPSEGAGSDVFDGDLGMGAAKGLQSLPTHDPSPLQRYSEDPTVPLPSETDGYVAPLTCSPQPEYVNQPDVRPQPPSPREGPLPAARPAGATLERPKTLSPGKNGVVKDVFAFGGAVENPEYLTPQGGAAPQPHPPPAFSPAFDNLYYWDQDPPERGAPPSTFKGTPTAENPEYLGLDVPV
T1 sequence (P00533 25-1210): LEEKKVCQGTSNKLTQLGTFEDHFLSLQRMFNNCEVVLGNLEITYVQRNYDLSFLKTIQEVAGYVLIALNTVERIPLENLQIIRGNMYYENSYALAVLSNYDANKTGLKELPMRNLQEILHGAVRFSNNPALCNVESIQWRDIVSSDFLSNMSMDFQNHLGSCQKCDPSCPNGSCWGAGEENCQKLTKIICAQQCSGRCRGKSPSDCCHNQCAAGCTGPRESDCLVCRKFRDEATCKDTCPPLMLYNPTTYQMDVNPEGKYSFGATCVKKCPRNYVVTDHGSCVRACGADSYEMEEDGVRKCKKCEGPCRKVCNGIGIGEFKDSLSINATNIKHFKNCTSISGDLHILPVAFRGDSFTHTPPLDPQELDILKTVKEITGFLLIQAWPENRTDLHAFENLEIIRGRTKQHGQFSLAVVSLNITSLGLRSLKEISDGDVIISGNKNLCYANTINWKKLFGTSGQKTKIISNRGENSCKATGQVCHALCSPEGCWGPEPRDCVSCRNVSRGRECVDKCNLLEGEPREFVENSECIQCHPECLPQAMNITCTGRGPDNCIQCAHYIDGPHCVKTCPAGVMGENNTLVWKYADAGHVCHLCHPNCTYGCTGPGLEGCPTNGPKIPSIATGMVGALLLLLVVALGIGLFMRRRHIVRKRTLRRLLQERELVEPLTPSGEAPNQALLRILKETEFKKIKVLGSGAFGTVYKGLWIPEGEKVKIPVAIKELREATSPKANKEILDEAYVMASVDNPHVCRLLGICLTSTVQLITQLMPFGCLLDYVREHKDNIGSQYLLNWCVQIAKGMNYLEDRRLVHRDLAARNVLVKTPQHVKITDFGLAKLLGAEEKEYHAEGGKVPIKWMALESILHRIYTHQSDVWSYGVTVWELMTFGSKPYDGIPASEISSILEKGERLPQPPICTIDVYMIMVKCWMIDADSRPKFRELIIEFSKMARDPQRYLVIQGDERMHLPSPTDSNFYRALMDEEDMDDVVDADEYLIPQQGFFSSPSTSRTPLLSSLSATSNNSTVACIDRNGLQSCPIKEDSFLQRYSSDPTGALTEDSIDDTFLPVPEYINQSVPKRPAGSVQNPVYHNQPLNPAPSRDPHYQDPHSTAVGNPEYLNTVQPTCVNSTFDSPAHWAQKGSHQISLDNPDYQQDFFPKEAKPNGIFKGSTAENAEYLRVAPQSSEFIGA
T5 sequence (P00533 25-1210 T790M/L858R): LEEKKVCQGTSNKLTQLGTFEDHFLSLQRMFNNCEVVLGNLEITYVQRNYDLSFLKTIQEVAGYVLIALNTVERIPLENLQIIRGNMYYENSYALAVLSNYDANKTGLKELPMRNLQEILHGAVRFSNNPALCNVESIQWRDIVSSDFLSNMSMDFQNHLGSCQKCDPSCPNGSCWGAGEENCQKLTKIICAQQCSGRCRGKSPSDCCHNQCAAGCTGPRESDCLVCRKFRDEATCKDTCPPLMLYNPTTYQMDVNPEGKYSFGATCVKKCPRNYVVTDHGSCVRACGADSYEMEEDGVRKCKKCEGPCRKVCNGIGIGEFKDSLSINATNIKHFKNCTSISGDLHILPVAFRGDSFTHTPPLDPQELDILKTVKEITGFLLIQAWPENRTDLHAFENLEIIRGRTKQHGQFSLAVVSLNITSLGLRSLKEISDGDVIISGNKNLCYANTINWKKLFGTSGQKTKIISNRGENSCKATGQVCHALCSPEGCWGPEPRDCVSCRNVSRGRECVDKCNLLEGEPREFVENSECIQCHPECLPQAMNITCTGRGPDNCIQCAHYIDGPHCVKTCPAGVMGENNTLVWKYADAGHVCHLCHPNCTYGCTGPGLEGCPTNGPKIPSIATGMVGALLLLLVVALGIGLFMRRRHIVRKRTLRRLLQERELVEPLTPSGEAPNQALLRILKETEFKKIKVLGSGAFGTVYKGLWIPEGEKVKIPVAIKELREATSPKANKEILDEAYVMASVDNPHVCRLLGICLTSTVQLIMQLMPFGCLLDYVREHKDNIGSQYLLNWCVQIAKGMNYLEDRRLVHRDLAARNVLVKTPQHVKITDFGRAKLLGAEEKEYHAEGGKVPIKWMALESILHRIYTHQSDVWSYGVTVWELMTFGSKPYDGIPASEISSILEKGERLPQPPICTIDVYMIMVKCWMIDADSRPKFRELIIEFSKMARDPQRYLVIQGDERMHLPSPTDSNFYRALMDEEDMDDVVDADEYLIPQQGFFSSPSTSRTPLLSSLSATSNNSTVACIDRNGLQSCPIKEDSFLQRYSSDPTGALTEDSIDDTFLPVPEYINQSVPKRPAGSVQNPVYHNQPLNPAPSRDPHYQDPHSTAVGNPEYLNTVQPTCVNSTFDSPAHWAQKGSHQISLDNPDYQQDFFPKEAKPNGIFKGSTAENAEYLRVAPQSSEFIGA

Row | SMILES | IC50 [4] | IC50 [5] | GI50 [6] | IC50 [8] | IC50 [10] | IC50 [11] | GI50 [1, 19] | GI50 [2, 20] | GI50 [9, 21] | GI50 [13, 22] | GI50 [1, 15] | GI50 [2, 16] | GI50 [3] | GI50 [7] | GI50 [9, 17] | GI50 [12] | GI50 [13, 18] | GI50 [14]
1 | C=CC(=O)Nc1cc(Nc2ncnc(Nc3cc(Cl)c(F)cc3C3(O)CCC3)n2)c(OC)cc1N(C)CCN(C)C [Compound 72, N-(5-(4-(5-chloro-4-fluoro-2-(1-hydroxycyclobutyl)phenylamino)-1,3,5-triazin-2-ylamino)-2-((2-(dimethylamino)ethyl)(methyl)amino)-4-methoxyphenyl)acrylamide formic acid salt] | 0.0262 µM | 0.0089 µM | 0.0029 µM | 0.008 µM | 0.0187 µM | 0.0006 µM | – | – | – | – | 46.1 nM | 4.1 nM | > 3 µM | 0.0073 µM | 42.3 nM | 0.0389 µM | 10.4 nM | 0.0333 µM
2 | C=CC(=O)Nc1cc(Nc2ncnc(Nc3cc(C4CC4)c(F)cc3C(C)(C)O)n2)c(OC)cc1N(C)CCN(C)C [Compound 75, N-(5-(4-(5-cyclopropyl-4-fluoro-2-(2-hydroxypropan-2-yl)phenylamino)-1,3,5-triazin-2-ylamino)-2-((2-(dimethylamino)ethyl)(methyl)amino)-4-methoxyphenyl)acrylamide] | 0.0426 µM | 0.0108 µM | 0.0455 µM | 0.0185 µM | 0.0279 µM | 0.0037 µM | 73 nM | 19.2 nM | 90.6 nM | 11.6 nM | – | – | > 3 µM | 0.133 µM | – | 0.0299 µM | – | 0.25 µM
3 | C=CC(=O)Nc1cc(Nc2nccc(Nc3cc(Cl)c(F)cc3C(C)(C)O)n2)c(OC)cc1N1CC(F)(F)C[C@@H]1CN(C)C [Compound 82, (R)-N-(5-(4-(5-chloro-4-fluoro-2-(2-hydroxypropan-2-yl)phenylamino)pyrimidin-2-ylamino)-2-(2-((dimethylamino)methyl)-4,4-difluoropyrrolidin-1-yl)-4-methoxyphenyl)acrylamide] | 0.0978 µM | 0.007 µM | 0.0761 µM | 0.0172 µM | 0.0138 µM | 0.0009 µM | 35.8 nM | 3.6 nM | 77.7 nM | 42 nM | – | – | > 3 µM | 0.203 µM | – | 0.0824 µM | – | 0.31 µM
4 | C=CC(=O)Nc1cc(Nc2nccc(Nc3cc(Cl)c(F)cc3C(C)(C)O)n2)c(OC)cc1N1C[C@H](F)C[C@@H]1CN(C)C [Compound 88, N-(5-(4-(5-chloro-4-fluoro-2-(2-hydroxypropan-2-yl)phenylamino)pyrimidin-2-ylamino)-2-((2R,4R)-2-((dimethylamino)methyl)-4-fluoropyrrolidin-1-yl)-4-methoxyphenyl) acrylamide formic acid salt] | 0.0278 µM | 0.0045 µM | 0.00157 µM | 0.0075 µM | 0.0101 µM | 0.0005 µM | – | – | – | – | 18.8 nM | 1.8 nM | > 3 µM | 0.00649 µM | 14 nM | 0.0312 µM | 6.9 nM | 0.012 µM
5 | C=CC(=O)Nc1cc(Nc2nccc(Nc3cc(Cl)c(F)cc3C(C)(O)C(F)(F)F)n2)c(OC)cc1N1CC[C@@H](N(C)C)C1 (stereo partly drawn) [Compound 92, N-(5-(4-(5-chloro-4-fluoro-2-(1,1,1-trifluoro-2-hydroxypropan-2-yl)phenylamino)pyrimidin-2-ylamino)-2-((R)-3-(dimethylamino)pyrrolidin-1-yl)-4-methoxyphenyl) acrylamide] | 0.765 µM | 0.026 µM | 0.228 µM | 0.0712 µM | 0.0799 µM | 0.0017 µM | 84.7 nM | 4.9 nM | 92.1 nM | 40.6 nM | – | – | 1.2 µM | 0.0638 µM | – | 0.212 µM | – | 0.146 µM

Second part, led by results:

Row | IC50 [4] | IC50 [5] | GI50 [6] | IC50 [8] | IC50 [10] | IC50 [11] | GI50 [1, 19] | GI50 [2, 20] | GI50 [9, 21] | GI50 [13, 22] | SMILES | GI50 [1, 15] | GI50 [2, 16] | GI50 [3] | GI50 [7] | GI50 [9, 17] | GI50 [12] | GI50 [13, 18] | GI50 [14]
6 | 0.133 µM | 0.0526 µM | 0.0039 µM | 0.0344 µM | 0.0651 µM | 0.0004 µM | 76.8 nM | 6 nM | 86.6 nM | 43 nM | C=CC(=O)Nc1cc(Nc2ncc(Cl)c(Nc3cc(Cl)c(F)cc3C(C)(C)O)n2)c(OC)cc1N1CC[C@@H](N(C)C)C1 [Compound 74, (R)-N-(5-(5-chloro-4-(5-chloro-4-fluoro-2-(2-hydroxypropan-2-yl)phenylamino)pyrimidin-2-ylamino)-2-(3-(dimethylamino)pyrrolidin-1-yl)-4-methoxyphenyl) acrylamide] | – | – | > 3 µM | 0.0091 µM | – | 0.155 µM | – | 0.082 µM
7 | 0.605 µM | 1.56 µM | 0.0312 µM | 0.116 µM | 0.259 µM | 0.0004 µM | 191 nM | 19.1 nM | 450 nM | 232 nM | C=CC(=O)Nc1cc(Nc2ncc(C(F)(F)F)c(Nc3cc(Cl)c(F)cc3C(C)(C)O)n2)c(OC)cc1N1CC[C@@H](N(C)C)C1 [Compound 84, (R)-N-(5-(4-(5-chloro-4-fluoro-2-(2-hydroxypropan-2-yl)phenylamino)-5-(trifluoromethyl)pyrimidin-2-ylamino)-2-(3-(dimethylamino)pyrrolidin-1-yl)-4-methoxyphenyl)acrylamide] | – | – | > 3 µM | 0.0398 µM | – | 0.341 µM | – | 0.137 µM
8 | 0.0685 µM | 0.0716 µM | 0.0011 µM | 0.0321 µM | 0.0355 µM | 0.0005 µM | 63.1 nM | 22.4 nM | 80.7 nM | 51.1 nM | C=CC(=O)Nc1cc(Nc2ncc(C#N)c(Nc3cc(Cl)c(F)cc3C(C)(C)O)n2)c(OC)cc1N1CC[C@@H](N(C)C)C1 [Compound 85, (R)-N (5-(4-(5-chloro-4-fluoro-2-(2-hydroxypropan-2-yl)phenylamino)-5-cyanopyrimidin-2-ylamino)-2-(3-(dimethylamino)pyrrolidin-1-yl)-4-methoxyphenyl)acrylamide] | – | – | > 3 µM | 0.0026 µM | – | 0.129 µM | – | 0.011 µM
9 | 0.362 µM | 0.0212 µM | 0.0223 µM | 0.0519 µM | 0.0512 µM | 0.001 µM | 140 nM | 24.4 nM | 156 nM | 84.8 nM | C=CC(=O)Nc1cc(Nc2nccc(Nc3cc(Cl)c(F)cc3C(C)(C)O)n2)c(OC)cc1N1CC[C@H](N(C)C)C1 [Compound 87, (S)-N-(5-(4-(5-chloro-4-fluoro-2-(2-hydroxypropan-2-yl)phenylamino)pyrimidin-2-ylamino)-2-(3-(dimethylamino)pyrrolidin-1-yl)-4-methoxyphenyl)a crylamide] | – | – | 1.21 µM | 0.0137 µM | – | 0.827 µM | – | 0.048 µM
